In patent publication US20230382894A1, “CCR4 ANTAGONISTS” (CHEMOCENTRYX, INC., priority 2022, published 2023) one finds IC50 data, which are given here for 42 compounds.

Where only a bound is given, the exact number is not on record here.

In assay [1] the target is T1, CCR4 (Homo sapiens, UniProt P51679).
T1 construct: CEM Cells Endogenous Express CCR4; endogenous in cells; host or cells: CEM cells
T1 sequence (P51679 1-360): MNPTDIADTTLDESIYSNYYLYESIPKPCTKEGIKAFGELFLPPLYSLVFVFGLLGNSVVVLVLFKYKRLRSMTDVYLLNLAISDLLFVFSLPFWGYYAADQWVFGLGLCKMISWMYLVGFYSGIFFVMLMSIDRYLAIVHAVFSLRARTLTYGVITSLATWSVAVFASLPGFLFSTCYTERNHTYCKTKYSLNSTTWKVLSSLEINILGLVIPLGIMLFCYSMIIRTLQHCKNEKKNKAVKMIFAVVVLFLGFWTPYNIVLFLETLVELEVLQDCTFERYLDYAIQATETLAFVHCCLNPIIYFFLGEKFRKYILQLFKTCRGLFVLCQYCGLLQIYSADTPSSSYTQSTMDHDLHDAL
Description: CEM cell chemotaxis (migration) assay to CCL22 (MDC) in 100% Fetal Bovine Serum (FBS). The format is cell-based. To be noted: CEM cells in 100% FBS with 1% HEPEs; recombinant human CCL22 0.1 nM; 37° C. 60 minutes. In a few lines:
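Endogenously CCR4-expressing CEM cells in 100% FBS with 1% HEPES were preincubated with serially diluted compound (top final 10 μM) and allowed to migrate through 5 μm polycarbonate membranes toward 0.1 nM human CCL22 (EC50) for 60 min at 37 °C. Migrated cells were quantified by CyQUANT fluorescence.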

The target in assay [2] is T1, CCR4. Put plainly: CEM cell chemotaxis (migration) assay to CCL22 (MDC) in HBSS buffer with 0.1% BSA. The format is cell-based. To be noted: CEM cells in HBSS with 0.1% BSA; recombinant human CCL22 0.1 nM; 37° C. 60 minutes. From the text:
CEM Cells Endogenous Express CCR4
A chemotaxis assay can be used to determine the efficacy of potential receptor antagonists at blocking the migration mediated through chemokine receptors, such as CCR4. This assay is routinely performed using the ChemoTX® microchamber system with a 5 μm pore-sized polycarbonate membrane.
HBSS: CEM Cells are collected by centrifugation at 400×g at room temperature, then suspended at 5 million/ml in Hanks' Balanced Salt Solution (HBSS) buffer with 0.1% BSA. The compound being tested is serially diluted from a maximum final concentration of 10 μM (or an equivalent volume of its solvent (DMSO)) and is then added to the cell/buffer mixture. Separately, recombinant human CCL22 (MDC) at its EC50 concentration (0.1 nM) is placed in the lower wells of the ChemoTX® plate. The 5-μm (pore size) polycarbonate membrane was placed onto the plate, and 20 μL of the cell/compound mixture is transferred onto each well of the membrane. The plates are incubated at 37° C. for 60 minutes, after which the polycarbonate membranes are removed and 5 μl of the DNA-intercalating dye CyQUANT (Invitrogen, Carlsbad, CA) is added to the lower wells. The amount of fluorescence, corresponding to the number of migrated cells, is measured using a Spectrafluor Plus plate reader (TECAN, San Jose, CA).

As a reminder, the IC50 is the concentration that inhibits the measured activity by half. Take `C[C@@H](Nc1nc(N2CCN(C(=O)[C@H]3CCCN3)CC2)ncc1Cl)c1ccc(Cl)cc1F` [Example 1.004]: the IC50 in assay [1] and in assay [2] was less than 100 nM each time.
As to `CNC1CCN(C(=O)N2CCN(c3ncc(Cl)c(N[C@H](C)c4ccc(Cl)cc4Cl)n3)CC2)C1` (stereo partly drawn) [Example 1.005], the IC50 in assay [1] and in assay [2] was less than 100 nM throughout.
Regarding `C[C@@H](Nc1ncc(C(F)(F)F)c(N2CCN(C(=O)[C@H]3CCCN3)CC2)n1)c1ccc(Cl)cc1Cl` [Example 1.006], the IC50 in assay [1] and in assay [2] was less than 100 nM throughout.
As for `C[C@@H](Nc1nc(N2CCN(C(=O)[C@H]3CCCN3)CC2)ncc1C(F)(F)F)c1ccc(Cl)cc1Cl` [Example 1.007], the half-maximal inhibitory concentration (IC50) in assay [1] and in assay [2] was less than 100 nM each time.
With `C[C@@H](Nc1nc(N2CCC(N(C)C(=O)[C@H]3CCCN3)CC2)ncc1Cl)c1ccc(Cl)cc1Cl` [Example 1.008], the IC50 in assay [1] and in assay [2] was less than 100 nM each time.
Take `C[C@@H](Nc1nc(N2CCC(NC(=O)C3CCN(C)C3)CC2)ncc1Cl)c1ccc(Cl)cc1Cl` (stereo partly drawn) [Example 1.009]: the IC50 in assay [1] and in assay [2] was less than 100 nM throughout.
Regarding `C[C@@H](Nc1nc(N2CCN(C(=O)CCN(C)C)CC2)ncc1Cl)c1ccc(Cl)cc1Cl` [Example 1.010], the IC50 in assay [1] and in assay [2] was less than 100 nM each time.
As for `C[C@@H](Nc1nc(N2CCN(C(=O)[C@H]3CCCN3)[C@@H](C)C2)ncc1Cl)c1ccc(Cl)cc1Cl` [Example 1.011], the IC50 in assay [1] and in assay [2] was less than 100 nM in each case.
Consider `C[C@@H](Nc1nc(N2CC[C@H](NC(=O)[C@H]3CCCN3)[C@@H](O)C2)ncc1Cl)c1ccc(Cl)cc1Cl` [Example 1.012], for which the IC50 in assay [1] and in assay [2] was less than 100 nM throughout.
On to `C[C@@H](Nc1nc(N2CC[C@@H](NC(=O)[C@H]3CCCN3)[C@H](O)C2)ncc1Cl)c1ccc(Cl)cc1Cl` [Example 1.013], for which the IC50 in assay [1] and in assay [2] was less than 100 nM each time.
As for `C[C@@H](Nc1nc(N2CC[C@H](NC(=O)[C@H]3CCCN3)[C@H](O)C2)ncc1Cl)c1ccc(Cl)cc1Cl` [Example 1.014], the IC50 in assay [1] and in assay [2] was less than 100 nM in each case.
`C[C@@H](Nc1nc(N2CC[C@@H](NC(=O)[C@H]3CCCN3)C2)ncc1Cl)c1ccc(Cl)cc1Cl` [Example 1.015]: the half-inhibitory concentration (IC50) in assay [1] and in assay [2] was less than 100 nM each time.
Turning to `C[C@@H](Nc1nc(N2CCN(S(=O)(=O)CCN(C)C)CC2)ncc1Cl)c1ccc(Cl)cc1Cl` [Example 1.016], the results for the IC50 in assay [1] and in assay [2] were 100 to 1000 nM and less than 100 nM, respectively.
In the same order, the values of `C[C@@H]1CN(c2ncc(Cl)c(N[C@H](C)c3ccc(Cl)cc3Cl)n2)[C@@H](C)CN1C1CCCN(CCC(=O)O)C1` (stereo partly drawn) [Example 1.017] are less than 100 nM and less than 100 nM.
`C[C@@H]1CN(c2ncc(Cl)c(N[C@H](C)c3ccc(Cl)cc3Cl)n2)CCN1C(=O)c1c[nH]c(=O)n(C)c1=O` [Example 1.018]: the half-maximal inhibitory concentration (IC50) in assay [1] and in assay [2] was greater than 1000 nM in each case.
In the case of `C[C@@H]1CN(c2ncc(Cl)c(N[C@H](C)c3ccc(Cl)cc3Cl)n2)[C@@H](C)CN1C(=O)[C@H]1CCCN1CC(=O)O` [Example 1.019], the IC50 in assay [1] and in assay [2] was 100 to 1000 nM each time.
As for `C[C@@H](Nc1nc(C2=CCN(C(=O)CN(C)C)CC2)ncc1Cl)c1ccc(Cl)cc1Cl` [Example 1.020], the IC50 in assay [1] and in assay [2] was less than 100 nM each time.
`C[C@@H](Nc1nc(N2CCC(C3CNC3)CC2)ncc1Cl)c1ccc(Cl)cc1Cl` [Example 1.021]: the IC50 in assay [1] and in assay [2] was less than 100 nM in each case.
`C[C@@H](Nc1nc(N2CCN(C(=O)C3CCN(C)C3)CC2)ncc1Cl)c1ccc(Cl)cc1Cl` (stereo partly drawn) [Example 1.022]: the half-inhibitory concentration (IC50) in assay [1] and in assay [2] was less than 100 nM each time.
On to `C[C@@H](Nc1nc(N2CCN(C(=O)[C@H]3C[C@H](O)CN3)CC2)ncc1Cl)c1ccc(Cl)cc1Cl` [Example 1.023], for which the IC50 in assay [1] and in assay [2] was less than 100 nM each time.
For the compound `C[C@@H](Nc1nc(N2CCN(C(=O)[C@H]3CCCN3C)CC2)ncc1Cl)c1ccc(Cl)cc1Cl` [Example 1.024], the IC50 in assay [1] and in assay [2] was less than 100 nM in each case.
In the case of `C[C@@H](Nc1nc(N2CCC(C(=O)N(C)CCN(C)C)CC2)ncc1Cl)c1ccc(Cl)cc1Cl` [Example 1.025], the IC50 in assay [1] and in assay [2] was less than 100 nM throughout.
Turning to `C[C@@H](Nc1nc(N2CCC(C(=O)NCCN(C)C)CC2)ncc1Cl)c1ccc(Cl)cc1Cl` [Example 1.026], the IC50 in assay [1] and in assay [2] was less than 100 nM throughout.
For `C[C@@H](Nc1nc(C2=CCN(C(=O)[C@H]3CCCN3)CC2)ncc1Cl)c1ccc(Cl)cc1Cl` [Example 1.027], the IC50 in assay [1] and in assay [2] was less than 100 nM in each case.
Turning to `C[C@@H](Nc1nc(N2CC[C@@H](NC(=O)[C@H]3CCCN3)[C@@H](O)C2)ncc1Cl)c1ccc(Cl)cc1Cl` [Example 1.028], the IC50 in assay [1] and in assay [2] was less than 100 nM throughout.
As to `C[C@@H](Nc1nc(N2CC[C@H](NC(=O)[C@H]3CCCN3)C2)ncc1Cl)c1ccc(Cl)cc1Cl` [Example 1.029], the IC50 in assay [1] and in assay [2] was less than 100 nM throughout.
Consider `C[C@@H](Nc1nc(N2CCN(C(=O)[C@H]3CCCN3)C(C)(C)C2)ncc1Cl)c1ccc(Cl)cc1Cl` [Example 1.030], for which the half-maximal inhibitory concentration (IC50) in assay [1] is 100 to 1000 nM; in assay [2] it was greater than 1000 nM.
On to `C[C@@H](Nc1nc(N2CC3CC2CN3C(=O)[C@H]2CCCN2)ncc1Cl)c1ccc(Cl)cc1Cl` (stereo partly drawn) [Example 1.031], for which the IC50 in assay [1] and in assay [2] was 100 to 1000 nM each time.
Regarding `C[C@@H](Nc1nc(N2CCN(C(=O)C[C@H]3CCCN3)CC2)ncc1Cl)c1ccc(Cl)cc1Cl` [Example 1.032], the IC50 in assay [1] and in assay [2] was less than 100 nM throughout.
In the case of `C[C@@H](Nc1nc(N2CCN(C(=O)[C@H]3CCN3)CC2)ncc1Cl)c1ccc(Cl)cc1Cl` [Example 1.033], the IC50 in assay [1] and in assay [2] was less than 100 nM in each case.
On to `C[C@@H]1CN(c2ncc(Cl)c(N[C@H](C)c3ccc(Cl)cc3Cl)n2)[C@@H](C)CN1C(=O)[C@H]1CCCN1` [Example 1.034], for which the IC50 in assay [1] and in assay [2] was less than 100 nM each time.
In the case of `C[C@@H](Nc1nc(N2CCC(C3CCCN(CCC(=O)O)C3)CC2)ncc1Cl)c1ccc(Cl)cc1Cl` (stereo partly drawn) [Example 1.035], the IC50 in assay [1] and in assay [2] was less than 100 nM throughout.
On to `C[C@@H]1CN(c2ncc(Cl)c(N[C@H](C)c3ccc(Cl)cc3Cl)n2)CCN1C(=O)N1CCNCC1` [Example 1.036], for which the IC50 in assay [1] and in assay [2] was greater than 1000 nM in each case.
`C[C@@H](Nc1nc(N2CCN(C(=O)C3(C)CNC3)CC2)ncc1Cl)c1ccc(Cl)cc1Cl` [Example 1.037]: the IC50 in assay [1] and in assay [2] was 100 to 1000 nM in each case.
With `C[C@@H]1CN(C(=O)[C@H]2CCCN2)CCN1c1ncc(Cl)c(N[C@H](C)c2ccc(Cl)cc2Cl)n1` [Example 1.038], the IC50 in assay [1] and in assay [2] was less than 100 nM each time.
With `C[C@@H](Nc1nc(N2CCC(NC(=O)[C@H]3CCCN3)CC2)ncc1Cl)c1ccc(Cl)cc1Cl` [Example 1.039], the 50% inhibitory concentration (IC50) in assay [1] and in assay [2] was less than 100 nM throughout.
Consider `C[C@@H](Nc1nc(N2CCN(C(=O)C(C)(C)N)CC2)ncc1Cl)c1ccc(Cl)cc1Cl` [Example 1.040], for which the concentration for half-maximal inhibition (IC50) in assay [1] and in assay [2] was less than 100 nM each time.
Regarding `C[C@@H](Nc1nc(N2CCN(C(=O)CN(C)C)CC2)ncc1Cl)c1ccc(Cl)cc1Cl` [Example 1.041], the IC50 in assay [1] and in assay [2] was less than 100 nM throughout.
On to `C[C@@H]1CN(c2ncc(Cl)c(N[C@H](C)c3ccc(Cl)cc3Cl)n2)CCN1C(=O)[C@H]1CCCN1` [Example 1.042], for which the IC50 in assay [1] and in assay [2] was less than 100 nM throughout.
For the compound `Cc1nc(N2CCN(C(=O)[C@H]3CCCN3)[C@H](CO)C2)nc(N[C@H](C)c2ccc(Cl)cc2Cl)c1Cl` [Example 1.043], the IC50 in assay [1] and in assay [2] was less than 100 nM each time.
Regarding `C[C@@H](Nc1nc(N2CCN(C(=O)[C@H]3CCCCN3)CC2)ncc1Cl)c1ccc(Cl)cc1Cl` [Example 1.044], the IC50 in assay [1] and in assay [2] was less than 100 nM in each case.
On to `C[C@@H](Nc1nc(N2CCC(C3CCCNC3)CC2)ncc1Cl)c1ccc(Cl)cc1Cl` (stereo partly drawn) [Example 1.045], for which the IC50 in assay [1] and in assay [2] was less than 100 nM throughout.
